Measurements published in US20100168050A1, “COMPOUNDS HAVING ANTIANGIOGENIC ACTIVITY” (MEDESTEA INTERNAZIONALE S.P.A, priority 2004, published 2010).

Assays:
[1] = test system: HUVEC; assay: HUVEC apoptosis/necrosis, annexin V and propidium iodide staining; assay type: cell-based, human; settings: ATP 3 mM
Excerpt: It is possible that the inhibition of the ATP-dependent pathway can induce the shift to another metabolic activity, as the glycolysis. […] The block of the HUVEC proliferation is further evidenced by the absence of cell apoptosis due to the treatment of the cells with the tested compounds, as reported in the FIG. 9 (the results are representative of 5 experiments). Only the treatment with ATP was able to induce about 4.5% PI positive, e.g. necrotic cells.
In the second series of experiments, we studied the differences in the apoptosis induction on human promyelocytic leukemia HL60 cells by ATP and by the inhibitors of the P2X7 receptors. Apoptotic cells and necrotic cells were analyzed by staining the cells with annexin V and propidium iodide (PI) (BD Pharmingen apoptosis kit, San Diego, Calif.). Briefly, an aliquot of 10^5 cells was incubated with annexin V-fluorescein isothiocyanate (FITC) and PI for 15 minutes at room temperature in the dark. The cells were immediately analyzed by FACScalibur (Becton Dickinson, Heidelberg, Germany). The emission/excitation wavelengths were 530/488 nm for annexin V FITC (FL1) and 640 nm/488 nm for PI (FL2). The necrotic cells were annexin V- and PI-positive, whereas apoptotic cells were annexin V-positive and PI-negative. The percentage of cells stained in each quadrant was quantified using the cellQuest software (BD Bioscience, San Josew, Calif.). […]

[2] = test system: microglia cells expressing P22/P2X7; settings: Ferrari et al. 1997; cited from earlier work
[3] = test system: human umbilical vein endothelial cells (HUVEC); assay: HUVEC cell growing number, crystal violet absorbance at 595 nm; assay type: cell-based
Protocol: HUVEC were isolated from human umbilical cord by collagenase treatment and cultured in 1% gelatine-coated flasks using endotoxin-free Medium 199, containing 20% heat-inactivated fetal bovine serum, 1% bovine retinal-derived growth factor, 90 microg/ml heparin, 100 IU/ml penicillin and 100 microg/ml streptomycin. All experiments were carried out with HUVEc at the passage 1-4.
(§1) We used oATP at the concentration of 500 microM. HUVEC were treated with oATP over night, washed and fixed with glutaraldeide 2% in PBS. The cells were colored with crystal violet 0.1%, washed and dried. The dye solubilization was performed with acetic acid 10% and the absorbance was measured spectrophotometrically at 595 nm, using a microplate reader. The optical density was proportional to the number of cells.
as §1, with “In” for “We used oATP at”, “first series” for “concentration”, “experiments we studied the proliferation of human umbilical vein endothelial cells (HUVEC), obtained as previously described (1). The” for “500 microM.”, “each of the compounds for 36 hours,” for “oATP over night,”

[4] = test system: RMA cells (T-cell lymphoma); assay: Tumor growth after subcutaneous RMA cell injection in C57BL/6 mice; assay type: in vivo, mouse
Excerpt: RMA cells were derived from the Rausher leukemia virus-induced mouse T-cell lymphoma RBL-5 of B6 origin and maintained in RPMI 1640 medium, supplemented with fetal bovine serum, 1% penicillin/streptomycin and 1% glutamine (complete medium).
(§2) C57BL/6 female mice weighing about 18-20 g (8 week old) were used. The cells were washed twice with 0.9% NaCl and subcutaneously injected in each mouse in a volume of 100 microliters containing 7×10^4 cells. After 10 days from RMA cell injection, we treated the mice with oATP. Five groups of mice were studied (each of 7 mice): 1) controls, untreated; 2) locally (subcutaneously) (sc) treated with 0.5 mg of oATP; 3) locally (sc) treated with 1 mg oATP; 4) intraperitoneally treated with 1 mg oATP; 5) locally (sc) treated with 1 mg oATP for 3 days only.
(§3) The mice were observed until the 20th day from the tumor inoculation: they were weighed daily and the size of the tumor mass was daily measured.

[5] = test system: TNFalpha receptor 1 (TNFR1) on HUVEC; assay: Cytofluorometric assay of TNFalpha receptor expression on endothelial cells; assay type: cell-based, human
Excerpt: In addition, oATP was cytofluorometrically assayed for its ability to modulate the expression of TNFalpha receptors on endothelial cells. As reported in the FIG. 9a, the use of human TNFalpha (100 U/ml) improved the expression of the TNFalpha receptor 1 (TNFR1) on HUVEC. […] However, oATP was able to downregulate the TNFalpha-induced increased expression of TNFR1.

[6] = test system: Human endothelial Cells (HUVEC); assay: Proliferation assay, HUVEC counted in Burker chamber; assay type: cell-based
Protocol: Human endothelial Cells (HUVEC) were isolated from umbilical vein, counted and seeded in a constant number in a 96-well plate. The cells were cultured as described (Jaffe, E. A. (1984) Biology of Endothelial Cells, Martinus Nighoff Publisher, Boston, USA, pp. 1-260), with or without (control) VEGF (50 ng/ml), in the presence of o-ATP (100 μM), and o-ATP+VEGF. After 24 hours cultivation with or without stimulus, the cells were washed and counted with an optical microscope using a Burker chamber. The results are reported in FIG. 1 and represent the mean±SD of 10 experiments.

[7] = test system: macrophage cell lines; settings: Murgia et al. 1993; cited from earlier work
[8] = test system: RMA wild type (wt) murine lymphoma T cell line; assay: Cell apoptosis assay, annexin V/PI FACS; assay type: cell-based, mouse
Protocol: RMA wild type (wt) murine lymphoma T cell line (ATCC) was grown in RPMI 1640 supplemented with 10% heat inactivated fetal bovine serum, 100 U/ml penicillin, 100 microg/ml streptomycin.
Apoptosis was evaluated by FACS analysis, after staining with annexin-V FITC-conjugate to show the exposure of phosphatidyl serine on the external side of plasma membranes, and with propidium iodide (PI).
Two thousand RMA wt cells and lymphocytes were treated with or without different concentrations of oATP for 24 and 48 hours. The cells were then washed with PBS with Ca++ and Mg++ and stained.
Ten thousand cell/sample were analysed and the percentage of annexin V/PI positive cells was calculated with FCS-express software (DE NOVO Software).

[9] = test system: RMA wt cells; assay: Cell cycle analysis, PI staining, FACScan; assay type: cell-based, mouse
Protocol: RMA wt cells were treated with different concentrations of oATP for 24 and 48 hours, then fixed for at least four hours in ice-cold 70% ethanol. Cells were stained with a solution containing NP-40, RNase and PI and cell cycle distribution was detected using FACScan (Becton Dickinson, San Jose, Calif.) and analyzed with FCS-express software.
Cell cycle progression of RMA wt cell line treated with different concentrations of oATP for 24 or 48 hours.

[10] = test system: rat paw inflammation (CFA); settings: WO 02/11737; cited from earlier work
[11] = Body weight of RMA tumor-bearing mice during treatment; assay type: in vivo, mouse; settings: during the different oATP treatments (0.5 or 1 mg sc, 1 mg ip)
Protocol: as §2, §3

[12] = test system: PBMC transendothelial migration through a HUVEC monolayer; assay: Transendothelial migration assay, PBMC through HUVEC monolayer; assay type: cell-based, human
Protocol: VEGF is a prototypic angiogenetic factor which induces endothelial cell proliferation, angiogenesis and capillary permeability. The latter is evidenced by the assay of transendothelial migration. It is known that VEGF increases transendothelial migration. Migration assay was performed using a Transwell double chamber system (5 micrometer polycarbonate membrane). HUVEC (5×10^4 cells/well) were seeded on the filter, in the presence or absence of TNFα (200 U/ml) and oATP 500 microM. Freshly obtained PMBC (peripheral blood mononuclear cells) by means of fycoll from buffy-coat were added in the upper compartment and allowed to migrate over night to the lower chamber which contained RPMI and 10% fetal calf serum. […] Data represent mean±SEM of 7 experiments.

[13] = test system: human promyelocytic leukemia HL60 cells; assay: HL60 apoptosis/necrosis, annexin V-FITC and PI staining; assay type: cell-based; settings: oATP 300 microM versus PPADS 50 microM and KN62 10 microM
Protocol: In the second series of experiments, we studied the differences in the apoptosis induction on human promyelocytic leukemia HL60 cells by ATP and by the inhibitors of the P2X7 receptors. Apoptotic cells and necrotic cells were analyzed by staining the cells with annexin V and propidium iodide (PI) (BD Pharmingen apoptosis kit, San Diego, Calif.). Briefly, an aliquot of 10^5 cells was incubated with annexin V-fluorescein isothiocyanate (FITC) and PI for 15 minutes at room temperature in the dark. The cells were immediately analyzed by FACScalibur (Becton Dickinson, Heidelberg, Germany). The emission/excitation wavelengths were 530/488 nm for annexin V FITC (FL1) and 640 nm/488 nm for PI (FL2). The necrotic cells were annexin V- and PI-positive, whereas apoptotic cells were annexin V-positive and PI-negative. The percentage of cells stained in each quadrant was quantified using the cellQuest software (BD Bioscience, San Josew, Calif.). […] FIG. 11 summarizes the effects of the different treatments on the apoptosis/necrosis induction in the HL60 cells.

[14] = test system: lymphocytes from buffy-coat (PMBC), activated or not with PHA; assay: Cell apoptosis assay, annexin V/PI FACS; assay type: cell-based; settings: oATP at high concentrations
Protocol: Lymphocytes were obtained from a buffy-coat by a fycoll gradient and depleted from monocytes by adherence. Lymphocytes were activated with Phytohaemoagglutinin A mitogen (PHA). Apoptosis was evaluated by FACS analysis, after staining with annexin-V FITC-conjugate to show the exposure of phosphatidyl serine on the external side of plasma membranes, and with propidium iodide (PI). Two thousand RMA wt cells and lymphocytes were treated with or without different concentrations of oATP for 24 and 48 hours. The cells were then washed with PBS with Ca++ and Mg++ and stained. Ten thousand cell/sample were analysed and the percentage of annexin V/PI positive cells was calculated with FCS-express software (DE NOVO Software).

[15] = group 3: locally (sc) 1 mg oATP

Nc1ncnc2c1ncn2[C@@H]1O[C@H](COP(=O)(O)OP(=O)(O)OP(=O)(O)O)[C@@H](O)[C@H]1O [ATP]
PI positive, e.g. necrotic cells [1]: about 4.5%

Nc1ncnc2c1ncn2[C@@H](C=O)O[C@@H](C=O)COP(=O)(O)OP(=O)(O)OP(=O)(O)O [oATP, adenosine-5′-triphosphate-2′,3′-dialdehyde]
IL-1β release (dependent on LPS) [2]: selectively inhibited
cell growing number (HUVEC proliferation) ([3]; 36 hours, ATP 3 mM, oATP 300 microM, PPADS 50 microM, KN62 10 microM): maximal reduction
cell growing number (optical density) ([3]; oATP 500 microM over night): significantly reduced
consistency of the tumor mass obtained in 20 days [4, 15]: less solid than the tumor mass obtained in the other groups
tumor growth at 20 days from RMA cell injection [4, 15]: less evident than that observed in the other groups
tumor mass (arbitrary units) ([4]; group 3: locally (sc) 1 mg oATP, three days from the beginning of the treatment (until the 14th day)): did not significantly grow
tumor mass (arbitrary units) ([4]; group 5: locally (sc) 1 mg oATP for 3 days only, three days from the beginning of the treatment): did not significantly grow
tumor growth ([4]; local continuous treatment with 1 mg oATP): significantly slowing the tumor growth
TNFalpha-induced increased expression of TNFR1 ([5]; human TNFalpha 100 U/ml plus oATP): downregulate
expression of TNFR1 on HUVEC ([5]; oATP alone): did not modify such expression
effect on HUVEC proliferative capacity compared with vasostatin ([6]; in vitro, HUVEC): higher than that induced by vasostatin
proliferative capacity of HUVEC ([6]; o-ATP 100 μM, 24 hours, even in the presence of a mitogen (VEGF 50 ng/ml)): significant reduction
ATP-induced permeabilization of the plasma membrane [7]: able to block
percentage of AnnexinV/PI positive cells ([8]; RMA wt, oATP 1 mM, 48 hours): strongly increases
apoptosis of RMA cells ([8]; oATP at high concentrations): able to induce apoptosis
% G0/G1 ([9]; oATP 0.1 μM, 24 h): 48%
% G2/M ([9]; oATP 0.1 μM, 24 h): 19%
% S ([9]; oATP 0.1 μM, 24 h): 24%
% subG1 ([9]; oATP 0.1 μM, 24 h): 9%
% G0/G1 ([9]; oATP 0.1 μM, 48 h): 50%
% G2/M ([9]; oATP 0.1 μM, 48 h): 22%
% S ([9]; oATP 0.1 μM, 48 h): 24%
% subG1 ([9]; oATP 0.1 μM, 48 h): 4%
% G0/G1 ([9]; oATP 1 μM, 24 h): 38%
% G2/M ([9]; oATP 1 μM, 24 h): 10%
% S ([9]; oATP 1 μM, 24 h): 29%
% subG1 ([9]; oATP 1 μM, 24 h): 23%
% G0/G1 ([9]; oATP 1 μM, 48 h): 52%
% G2/M ([9]; oATP 1 μM, 48 h): 26%
% S ([9]; oATP 1 μM, 48 h): 19%
% subG1 ([9]; oATP 1 μM, 48 h): 3%
% G0/G1 ([9]; oATP 20 μM, 48 h): 50%
% G2/M ([9]; oATP 20 μM, 48 h): 19%
% S ([9]; oATP 20 μM, 48 h): 23%
% subG1 ([9]; oATP 20 μM, 48 h): 8%
% G0/G1 ([9]; oATP 0.1 mM, 24 h): 44%
% G2/M ([9]; oATP 0.1 mM, 24 h): 5%
% S ([9]; oATP 0.1 mM, 24 h): 20%
% subG1 ([9]; oATP 0.1 mM, 24 h): 31%
% G0/G1 ([9]; oATP 0.1 mM, 48 h): 33%
% G2/M ([9]; oATP 0.1 mM, 48 h): 20%
% S ([9]; oATP 0.1 mM, 48 h): 33%
% subG1 ([9]; oATP 0.1 mM, 48 h): 14%
% G0/G1 ([9]; oATP 1 mM, 24 h): 16%
% G2/M ([9]; oATP 1 mM, 24 h): 3%
% S ([9]; oATP 1 mM, 24 h): 6%
% subG1 ([9]; oATP 1 mM, 24 h): 75%
% G0/G1 ([9]; oATP 1 mM, 48 h): 44%
% G2/M ([9]; oATP 1 mM, 48 h): 7%
% S ([9]; oATP 1 mM, 48 h): 25%
% subG1 ([9]; oATP 1 mM, 48 h): 24%
effect on CFA-induced unilateral rat paw inflammation [10]: anti-inflammatory and analgesic effect
body weights of the mice [11]: No significant differences
non-stimulated PBMC transendothelial migration ([12]; addition of oATP, no TNFα): inhibited
TNFα-induced transendothelial migration of PBMC ([12]; oATP 500 microM, TNFα 200 U/ml, over night): significantly reduces
cell apoptosis induction on HL60 [13]: at better extent with respect to PPADS and KN62
apoptosis of lymphocytes [14]: not of lymphocytes
